Data from ChEMBL document CHEMBL1201862, “PubChem BioAssay data set” (2004).
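Grown in 96-well plates, cells were treated for 48 hours with each compound at five concentrations. Insufficient inhibition: endpoint recorded as highest concentration tested. GI50: concentration for 50% inhibition of growth.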 The source made the active and inactive calls. Cut-off read from the data, not from the text of the source: active = GI50 up to about 1.1 µM and inactive = higher.

Key:
Experiment in all cases: NCI-60 cell line screen, 48 h
SK-MEL-5 = tested on: SK-MEL-5
SF-295 = tested on: SF-295
MOLT-4 = tested on: MOLT-4
UO-31 = tested on: UO-31
SK-OV-3 = tested on: SK-OV-3
OVCAR-8 = tested on: OVCAR-8
Hs-578T = tested on: Hs-578T
TK-10 = tested on: TK-10
ACHN = tested on: ACHN
MDA-N = tested on: MDA-N
BT-549 = tested on: BT-549
HCT-116 = tested on: HCT-116
786-0 = tested on: 786-0
SF-268 = tested on: SF-268
Malme-3M = tested on: Malme-3M
U-251 = tested on: U-251
SNB-19 = tested on: SNB-19
SN12C = tested on: SN12C
KM12 = tested on: KM12
IGROV-1 = tested on: IGROV-1
K562 = tested on: K562
UACC-62 = tested on: UACC-62
SK-MEL-2 = tested on: SK-MEL-2
COLO 205 = tested on: COLO 205
HT-29 = tested on: HT-29
NCI-H23 = tested on: NCI-H23
SK-MEL-28 = tested on: SK-MEL-28
OVCAR-4 = tested on: OVCAR-4
M14 = tested on: M14
CAKI-1 = tested on: CAKI-1
RXF 393 = tested on: RXF 393
PC-3 = tested on: PC-3
HCT-15 = tested on: HCT-15
LOX IMVI = tested on: LOX IMVI
SF-539 = tested on: SF-539
MDA-MB-435 = tested on: MDA-MB-435
NCI-H522 = tested on: NCI-H522
NCI-H460 = tested on: NCI-H460
DU-145 = tested on: DU-145
HOP-92 = tested on: HOP-92
SR = tested on: SR
RPMI-8226 = tested on: RPMI-8226
EKVX = tested on: EKVX
HCC 2998 = tested on: HCC 2998
MDA-MB-231 = tested on: MDA-MB-231
SNB-75 = tested on: SNB-75
NCI/ADR-RES = tested on: NCI/ADR-RES
T47D = tested on: T47D
UACC-257 = tested on: UACC-257
HOP-62 = tested on: HOP-62
A549 = tested on: A549
MCF7 = tested on: MCF7
SW-620 = tested on: SW-620
OVCAR-3 = tested on: OVCAR-3
HL-60 = tested on: HL-60
OVCAR-5 = tested on: OVCAR-5
NCI-H226 = tested on: NCI-H226
CCRF-CEM = tested on: CCRF-CEM
A498 = tested on: A498

SMILES: CC[C@@H]1CSC(/C=C/C2OC3OC(C)(C)OC3C3OC(C)(C)OC23)=N1 (some centres not stated)
- GI50 (SK-MEL-5): 6.67 µM (inactive)
- GI50 (SF-295): 18.6 µM (inactive)
- GI50 (MOLT-4): 4.54 µM (inactive)
- GI50 (UO-31): 10.8 µM (inactive)
- GI50 (SK-OV-3): 35.8 µM (inactive)
- GI50 (OVCAR-8): 4.49 µM (inactive)
- GI50 (Hs-578T): 17.9 µM (inactive)
- GI50 (TK-10): 3.78 µM (inactive)
- GI50 (ACHN): 9.44 µM (inactive)
- GI50 (MDA-N): 4.5 µM (inactive)
- GI50 (BT-549): 3.58 µM (inactive)
- GI50 (HCT-116): 3.5 µM (inactive)
- GI50 (786-0): 3.98 µM (inactive)
- GI50 (SF-268): 6.03 µM (inactive)
- GI50 (Malme-3M): 10.9 µM (inactive)
- GI50 (U-251): 13.6 µM (inactive)
- GI50 (SNB-19): 20.4 µM (inactive)
- GI50 (SN12C): 11.1 µM (inactive)
- GI50 (KM12): 13.6 µM (inactive)
- GI50 (IGROV-1): 10.3 µM (inactive)
- GI50 (K562): 3.91 µM (inactive)
- GI50 (UACC-62): 13.9 µM (inactive)
- GI50 (SK-MEL-2): 14.1 µM (inactive)
- GI50 (COLO 205): 5.32 µM (inactive)
- GI50 (HT-29): 3.94 µM (inactive)
- GI50 (NCI-H23): 5.05 µM (inactive)
- GI50 (SK-MEL-28): 11.9 µM (inactive)
- GI50 (OVCAR-4): 4.39 µM (inactive)
- GI50 (M14): 10 µM (inactive)
- GI50 (CAKI-1): 11.1 µM (inactive)
- GI50 (RXF 393): 3.4 µM (inactive)
- GI50 (PC-3): 8.2 µM (inactive)
- GI50 (HCT-15): 3.75 µM
- GI50 (LOX IMVI): 6.53 µM (inactive)
- GI50 (SF-539): 4.84 µM (inactive)
- GI50 (MDA-MB-435): 4.15 µM (inactive)
- GI50 (NCI-H522): 3.18 µM (inactive)
- GI50 (NCI-H460): 21.5 µM (inactive)
- GI50 (DU-145): 2.27 µM (inactive)
- GI50 (HOP-92): 3.7 µM (inactive)
- GI50 (SR): 3.89 µM (inactive)
- GI50 (RPMI-8226): 5.78 µM (inactive)
- GI50 (EKVX): 11.8 µM (inactive)
- GI50 (HCC 2998): 3.03 µM (inactive)
- GI50 (MDA-MB-231): 12.4 µM (inactive)
- GI50 (SNB-75): 15 µM (inactive)
- GI50 (NCI/ADR-RES): 12.7 µM (inactive)
- GI50 (T47D): 4.25 µM (inactive)
- GI50 (UACC-257): 10.1 µM (inactive)
- GI50 (HOP-62): 22.9 µM (inactive)
- GI50 (A549): 22.5 µM (inactive)
- GI50 (MCF7): 4.58 µM (inactive)
- GI50 (SW-620): 3.22 µM (inactive)
- GI50 (OVCAR-3): 4.97 µM (inactive)
- GI50 (HL-60): 2.34 µM (inactive)
- GI50 (OVCAR-5): 7.91 µM (inactive)
- GI50 (NCI-H226): 16.4 µM (inactive)

SMILES: CC1(C)CC(=O)C(=CNc2nc(-c3cccc([N+](=O)[O-])c3)cs2)C(=O)C1
- GI50 (SF-295): 37.2 µM (inactive)
- GI50 (MOLT-4): 10.5 µM (inactive)
- GI50 (UO-31): 25.6 µM (inactive)
- GI50 (SK-OV-3): 32.7 µM (inactive)
- GI50 (OVCAR-8): 23.7 µM (inactive)
- GI50 (Hs-578T): 18.9 µM (inactive)
- GI50 (TK-10): 35.8 µM (inactive)
- GI50 (ACHN): 18.2 µM (inactive)
- GI50 (MDA-N): 17.8 µM (inactive)
- GI50 (BT-549): 18.7 µM (inactive)
- GI50 (HCT-116): 14.9 µM (inactive)
- GI50 (786-0): 15.1 µM (inactive)
- GI50 (SF-268): 15 µM (inactive)
- GI50 (U-251): 19.6 µM (inactive)
- GI50 (SNB-19): 15.3 µM (inactive)
- GI50 (SN12C): 18.1 µM (inactive)
- GI50 (KM12): 16.6 µM (inactive)
- GI50 (IGROV-1): 17.6 µM (inactive)
- GI50 (K562): 16.6 µM (inactive)
- GI50 (CCRF-CEM): 2 µM (inactive)
- GI50 (UACC-62): 16 µM (inactive)
- GI50 (SK-MEL-2): 55.8 µM (inactive)
- GI50 (COLO 205): 14.8 µM (inactive)
- GI50 (HT-29): 17 µM (inactive)
- GI50 (NCI-H23): 18.1 µM (inactive)
- GI50 (OVCAR-4): 27.5 µM (inactive)
- GI50 (M14): 15.8 µM (inactive)
- GI50 (CAKI-1): 11.3 µM (inactive)
- GI50 (RXF 393): 21.7 µM (inactive)
- GI50 (PC-3): 24.8 µM (inactive)
- GI50 (HCT-15): 11.6 µM
- GI50 (LOX IMVI): 13.7 µM (inactive)
- GI50 (SF-539): 20.8 µM (inactive)
- GI50 (MDA-MB-435): 21.4 µM (inactive)
- GI50 (NCI-H522): 9.04 µM (inactive)
- GI50 (NCI-H460): 14.7 µM (inactive)
- GI50 (DU-145): 29.4 µM (inactive)
- GI50 (A498): 13.8 µM (inactive)
- GI50 (HOP-92): 17.3 µM (inactive)
- GI50 (RPMI-8226): 17.9 µM (inactive)
- GI50 (EKVX): 14.7 µM (inactive)
- GI50 (HCC 2998): 15.7 µM (inactive)
- GI50 (MDA-MB-231): 18.5 µM (inactive)
- GI50 (SNB-75): 14.9 µM (inactive)
- GI50 (NCI/ADR-RES): 18 µM (inactive)
- GI50 (T47D): 18.1 µM (inactive)
- GI50 (UACC-257): 22.5 µM (inactive)
- GI50 (HOP-62): 19.6 µM (inactive)
- GI50 (A549): 66.1 µM (inactive)
- GI50 (MCF7): 15.8 µM (inactive)
- GI50 (SW-620): 11.9 µM (inactive)
- GI50 (OVCAR-3): 29 µM (inactive)
- GI50 (HL-60): 7.52 µM (inactive)
- GI50 (OVCAR-5): 46.3 µM (inactive)
- GI50 (NCI-H226): 15.3 µM (inactive)
